Results taken from ChEMBL document CHEMBL1201862, “PubChem BioAssay data set” (2004).
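Step 1: Grow cells in 96-well plates. Step 2: Expose to compound for 48 hours at 5 concentrations. Step 3: Interpolate endpoints linearly; if unreached, use highest concentration. GI50: concentration for 50% inhibition of growth.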 Activity calls are given as the source filed them. Cut-off read from the data, not from the text of the source: active = GI50 up to about 1.1 µM and inactive = higher.

Key:
Experiment in all cases: DTP human tumour cell line panel, 48 h
A498 = test system: A498
A549 = test system: A549
ACHN = test system: ACHN
BT-549 = test system: BT-549
CCRF-CEM = test system: CCRF-CEM
COLO 205 = test system: COLO 205
HCT-116 = test system: HCT-116
IGROV-1 = test system: IGROV-1
KM12 = test system: KM12
MDA-MB-231 = test system: MDA-MB-231
Malme-3M = test system: Malme-3M
NCI-H460 = test system: NCI-H460
NCI/ADR-RES = test system: NCI/ADR-RES
OVCAR-4 = test system: OVCAR-4
SF-268 = test system: SF-268
SF-295 = test system: SF-295
SF-539 = test system: SF-539
SNB-19 = test system: SNB-19
UACC-257 = test system: UACC-257
UACC-62 = test system: UACC-62

| Structure (SMILES) | GI50 (A498) | GI50 (A549) | GI50 (ACHN) | GI50 (BT-549) | GI50 (CCRF-CEM) | GI50 (COLO 205) | GI50 (HCT-116) | GI50 (IGROV-1) | GI50 (KM12) | GI50 (MDA-MB-231) | GI50 (Malme-3M) | GI50 (NCI-H460) | GI50 (NCI/ADR-RES) | GI50 (OVCAR-4) | GI50 (SF-268) | GI50 (SF-295) | GI50 (SF-539) | GI50 (SNB-19) | GI50 (UACC-257) | GI50 (UACC-62) |
| --- | --- | --- | --- | --- | --- | --- | --- | --- | --- | --- | --- | --- | --- | --- | --- | --- | --- | --- | --- | --- |
| CCOC(=O)C(C)(C)C(O)C(C)C (stereo not given) | > 100 µM (inactive) | > 100 µM (inactive) | > 100 µM (inactive) | > 100 µM (inactive) | > 100 µM (inactive) | > 100 µM (inactive) | > 100 µM (inactive) | > 100 µM (inactive) | > 100 µM (inactive) | > 100 µM (inactive) | > 100 µM (inactive) | > 100 µM (inactive) | > 100 µM (inactive) | > 100 µM (inactive) | > 100 µM (inactive) | > 100 µM (inactive) | > 100 µM (inactive) | > 100 µM (inactive) | > 100 µM (inactive) | > 100 µM (inactive) |
| Clc1ccc(C2ON=C(c3ccccc3)N2C23CC4CC(CC(C4)C2)C3)cc1 (stereo not given) | > 10 µM (inactive) | > 10 µM (inactive) | > 10 µM (inactive) | > 10 µM (inactive) | > 10 µM (inactive) | > 10 µM (inactive) | > 10 µM (inactive) | > 10 µM (inactive) | > 10 µM (inactive) | > 10 µM (inactive) | > 10 µM (inactive) | > 10 µM (inactive) | > 10 µM (inactive) | > 10 µM (inactive) | > 10 µM (inactive) | > 10 µM (inactive) | > 10 µM (inactive) | > 10 µM (inactive) | > 10 µM (inactive) | > 10 µM (inactive) |
| COc1nn(Cc2ccccn2)c2ccc([N+](=O)[O-])cc12 | 30.3 µM (inactive) | > 100 µM (inactive) | 48.6 µM (inactive) | 44.4 µM (inactive) | 76.2 µM (inactive) | > 100 µM (inactive) | 62.4 µM (inactive) | 35.1 µM (inactive) | > 100 µM (inactive) | 57.4 µM (inactive) | > 100 µM (inactive) | > 100 µM (inactive) | 64.4 µM (inactive) | > 100 µM (inactive) | > 100 µM (inactive) | > 100 µM (inactive) | 27.4 µM (inactive) | > 100 µM (inactive) | 94 µM (inactive) | 38.3 µM (inactive) |
| COC(=O)CCc1cc(OC)c(O)c(C(Cc2ccc(OC)c(OC)c2)C(=O)OC)c1 (stereo not given) | > 100 µM (inactive) | > 100 µM (inactive) | > 100 µM (inactive) | > 100 µM (inactive) | > 100 µM (inactive) | > 100 µM (inactive) | > 100 µM (inactive) | > 100 µM (inactive) | > 100 µM (inactive) | > 100 µM (inactive) | > 100 µM (inactive) | > 100 µM (inactive) | > 100 µM (inactive) | > 100 µM (inactive) | > 100 µM (inactive) | > 100 µM (inactive) | > 100 µM (inactive) | > 100 µM (inactive) | > 100 µM (inactive) | > 100 µM (inactive) |
| COc1ccccc1N1CCN(CCCN2C(C(=O)c3ccccc3)=C(O)c3c(C)cc(C)nc3S2(=O)=O)CC1 | > 100 µM (inactive) | 47.2 µM (inactive) | 89.1 µM (inactive) | > 100 µM (inactive) | 52.5 µM (inactive) | 64 µM (inactive) | 61.2 µM (inactive) | 72.1 µM (inactive) | > 100 µM (inactive) | > 100 µM (inactive) | > 100 µM (inactive) | 52.8 µM (inactive) | 50.4 µM (inactive) | 73.3 µM (inactive) | 42.5 µM (inactive) | 35.7 µM (inactive) | > 100 µM (inactive) | 48.8 µM (inactive) | 74.1 µM (inactive) | > 100 µM (inactive) |
| c1ccc(C2C3=C(c4ccccc4CC3)N3c4cc5c(cc4=NC34CCCCC24)Nc2ccccc2N=5)cc1 (stereo not given) | 7.38 µM (inactive) | > 10 µM (inactive) | 7.26 µM (inactive) | > 10 µM (inactive) | 1.67 µM (inactive) | > 10 µM (inactive) | 5.55 µM (inactive) | > 10 µM (inactive) | > 10 µM (inactive) | 9.79 µM (inactive) | > 10 µM (inactive) | 5.14 µM (inactive) | 6.79 µM (inactive) | 5.79 µM (inactive) | > 10 µM (inactive) | > 10 µM (inactive) | > 10 µM (inactive) | > 10 µM (inactive) | > 10 µM (inactive) | > 10 µM (inactive) |
| CO/C=C(/C(=O)OC)c1ccccc1[C@H]1C[C@@H]1c1ccc(OC)cc1 | 28.1 µM (inactive) | 20.8 µM (inactive) | 22 µM (inactive) | 17.7 µM (inactive) | 25.4 µM (inactive) | 13.1 µM (inactive) | 16.3 µM (inactive) | 14.3 µM (inactive) | 18.4 µM (inactive) | 25.5 µM (inactive) | 15.6 µM (inactive) | 21.9 µM (inactive) | 20.2 µM (inactive) | 8.05 µM (inactive) | 25.1 µM (inactive) | 17.2 µM (inactive) | 17 µM (inactive) | 53.7 µM (inactive) | 25.8 µM (inactive) | 23.1 µM (inactive) |
| CCOC(=O)c1cc(NC(=O)c2ccccc2)c(=O)n2c(cc3c(Cl)cccc32)c1O | > 100 µM (inactive) | > 100 µM (inactive) | > 100 µM (inactive) | > 100 µM (inactive) | 95.5 µM (inactive) | > 100 µM (inactive) | > 100 µM (inactive) | > 100 µM (inactive) | > 100 µM (inactive) | > 100 µM (inactive) | > 100 µM (inactive) | > 100 µM (inactive) | > 100 µM (inactive) | > 100 µM (inactive) | > 100 µM (inactive) | 57.4 µM (inactive) | > 100 µM (inactive) | > 100 µM (inactive) | > 100 µM (inactive) | > 100 µM (inactive) |
| C[N+](C)(C)CC1CCc2ccccc2C1=O (stereo not given) | 26.2 µM (inactive) | 26.3 µM (inactive) | 7.55 µM (inactive) | 15.5 µM (inactive) | 2.55 µM (inactive) | 7.55 µM (inactive) | 5.55 µM (inactive) | 11.6 µM (inactive) | 10.8 µM (inactive) | 7.13 µM (inactive) | 1.8 µM (inactive) | 19.7 µM (inactive) | 10.6 µM (inactive) | 4.75 µM (inactive) | 17.3 µM (inactive) | 34.1 µM (inactive) | 15.8 µM (inactive) | 15.1 µM (inactive) | 12.2 µM (inactive) | 5.42 µM (inactive) |
| COc1cccc(-c2cc(O)c3cccnc3n2)c1 | 0.516 µM (active) | 0.102 µM (active) | 0.179 µM (active) | > 100 µM (inactive) | 0.0603 µM (active) | 0.0771 µM (active) | 0.0546 µM (active) | 0.432 µM (active) | 0.0581 µM (active) | 1.27 µM (inactive) | > 100 µM (inactive) | 0.1 µM (active) | 0.0617 µM (active) | > 40.5 µM (inactive) | 0.611 µM (active) | 0.075 µM (active) | 0.102 µM (active) | 0.213 µM (active) | > 100 µM (inactive) | 0.0662 µM (active) |
